Reference: PMC4397963, “Phospho-Tyrosine(s) vs. Phosphatidylinositol Binding in Shc Mediated Integrin Signaling” (American journal of molecular biology, 2015)
“Also recorded” adds a separate entry of the source.

Experiments:
[1] = system: Shc SH2 domain (380 – 473); experiment: ITC (and other) binding to Shc SH2 domain; conditions: 12°C and 25°C
Protocol: (§1) The Shc PTB domain (17 – 207) containing the pET15b vector was transformed into a Rosetta (DE3) cell line to pursue optimal expression levels. SH2 domain (380 – 473) was cloned into NdeI and XhoI sites in pET21b vector and then transformed into a BL21 (DE3) cell line. The vector of pET28a-full length Shc (1 – 473), generously provided by Dr. Ladbury (University of Texas MD Anderson Cancer Center, TX), was expressed in a BL21 (DE3) cell line as well. Typically, 10 ml overnight culture was used to inoculate 1 liter LB broth. Cells were grown at 37°C until OD600 reached 0.6. At this point the culture was cooled to room temperature and then the overnight overexpression was induced by 1 mM isopropyl-β-D-thiogalactopyranoside. Harvested cells were kept at −20°C for future purification or resuspended in lysis buffer supplemented with protease inhibitors. Cells were further lysed by french press and the cell debris was removed by centrifugation at 18,000 rpm at 4°C. […] The overexpression of the target protein and the purified protein were confirmed by SDS-PAGE and the bands of the expected mass were observed. […]
(§2) Calorimetric measurements of a full length Shc, PTB domain, and SH2 domain to β3 phosphopeptides or PtdIns were performed on a low volume Nano ITC (TA Instruments). […] The concentration of protein samples was determined by UV measurements. […]

[2] = molecular target: T1, full length Shc (1 – 473) (Homo sapiens, UniProt P29353); experiment: ITC binding to full length Shc; conditions: full length Shc, 12°C and 25°C
T1 construct: The vector of pET28a-full length Shc (1 – 473), generously provided by Dr. Ladbury; His-tag (N); made in house; host or cells: E. coli BL21 (DE3), pET28a (vector a gift from Dr. Ladbury)
T1 sequence (P29353 1-473 isoform P29353-2): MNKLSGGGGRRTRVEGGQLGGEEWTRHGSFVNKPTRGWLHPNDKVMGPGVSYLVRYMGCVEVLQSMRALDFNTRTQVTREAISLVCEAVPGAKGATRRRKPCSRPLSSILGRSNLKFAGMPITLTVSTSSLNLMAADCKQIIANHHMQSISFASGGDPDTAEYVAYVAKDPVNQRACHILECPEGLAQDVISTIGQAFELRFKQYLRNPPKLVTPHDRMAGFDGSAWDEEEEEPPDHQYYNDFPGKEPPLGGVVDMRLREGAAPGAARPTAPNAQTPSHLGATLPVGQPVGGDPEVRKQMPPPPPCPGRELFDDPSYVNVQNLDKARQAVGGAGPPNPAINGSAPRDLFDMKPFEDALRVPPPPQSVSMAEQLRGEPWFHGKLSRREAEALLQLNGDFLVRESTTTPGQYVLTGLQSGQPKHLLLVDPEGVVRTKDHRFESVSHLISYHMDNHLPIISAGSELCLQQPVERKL
Protocol: as §1, §2

apo Shc PTB domain = experiment: 15N-HSQC NMR titration of apo Shc PTB domain; assay type: binding; conditions: 15N-labelled apo PTB 100 – 200 μM, 50 mM Tris pH 7.5, 100 mM NaCl, 35°C; lipid to protein up to 15 to 1 (Ins(1,4,5)P3), 5 to 1 (PtdIns(4,5)P2)
Protocol: ^15N-labelled recombinant proteins were overexpressed in M9 medium supplemented with ^15NH4Cl as the sole nitrogen source. The same purification procedures as described above were followed. NMR samples of 100 – 200 μM were prepared in a buffer of 50 mM Tris, pH 7.5, 100 mM NaCl, 5 mM β-mercaptoethanol, 7% D2O, 1 mM 4,4-dimethyl-4-silapentane-1-sulfonic acid as the internal standard. ^15N-HSQC titration experiments were performed on a Varian/Agilent Inova 600 MHz spectrometer equipped with inverse-triple resonance cryo-probe at 35°C. All spectra were processed with NMRPipe and analyzed in CCPNmr Analysis software suite.
To find out the molecular details of these weak Shc-PtdIns interactions, we next employed NMR and performed ^15N-HSQC chemical shifts mapping experiments which are especially useful to define weak binding. […] Chemical shift perturbations, associated with the probes binding, were monitored. Overall, the observed shifts in Shc PTB resonance frequencies were small. However, they were concentration dependent, reproducible, and similar among the two PtdIns tested. […] The close-ups of 15N-HSQC spectra of PTB in the presence of PtdIns(4,5)P2, exemplifying the most shifted resonances, are shown in Figure 2. […] The first one, represented by the residues Q^148, S^149 and A^168, overlaps with the classical phosphotyrosine binding pocket of the protein-peptide binary complex. However, the canonical PTB fold cannot be formed without the stabilizing hydrophobic residue (pY-5) of the target peptide. Thus, in apo PTB domain Ins(1,4,5)P3 could only establish intermediate dynamic contacts with the amine functional groups of R^67 or Q^148 side chains. The second binding site, including the residues L^63, Q^76 and S^107, is formed at the interface of the second helix, the loop connecting the first beta strand with the second helix and the beginning of the second beta strand. This second PtdIns binding site is distinct from the second novel phosphotyrosine binding site we previously described for Shc PTB-bi-β3 complex, although it includes several overlapping residues. […]

full length Shc = conditions: ref [21], cited from earlier work
Excerpt: Since their discovery about two decades ago, PTB domains have been identified and structurally characterized within numerous multi-domain proteins. The ways they interact with their targets are strikingly versatile. The phosphorylated tyrosine is not always required for the high affinity interactions, and, in some cases, the binding motif might not even contain the tyrosine residue at all. PTB domains in general are also famous for the significant variance in their ligand binding affinities, ranging from 0.1 to 100 μM [17]. […] We were greatly surprised that we were not able to reproduce the data reported by George and co-workers, who have reported a tight dissociation constant (Kd of 0.7 μM) for the full length Shc. […] The conditions we tested include: i) Shc PTB domain at 12°C and 25°C in several different buffers (including exactly th ...

[3] = molecular target: T2, Shc PTB domain (17 – 207) (Homo sapiens, UniProt P29353); experiment: ITC binding to Shc PTB domain; conditions: Shc PTB domain, 12°C and 25°C, several buffers incl. 50 mM Tris pH 8.0, 200 mM NaCl, 1 mM Dithiothreitol
T2 construct: The Shc PTB domain (17 – 207) containing the pET15b vector was transformed into a Rosetta (DE3) cell line; His-tag (N); made in house; host or cells: E. coli Rosetta (DE3), pET15b
T2 sequence (P29353 17-207 isoform P29353-2): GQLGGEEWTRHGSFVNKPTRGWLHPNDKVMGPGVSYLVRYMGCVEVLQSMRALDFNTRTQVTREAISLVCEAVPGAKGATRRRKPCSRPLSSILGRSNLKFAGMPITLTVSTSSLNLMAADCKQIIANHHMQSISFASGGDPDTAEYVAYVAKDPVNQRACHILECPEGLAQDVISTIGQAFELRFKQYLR
Protocol: The Shc PTB domain (17 – 207) containing the pET15b vector was transformed into a Rosetta (DE3) cell line to pursue optimal expression levels. SH2 domain (380 – 473) was cloned into NdeI and XhoI sites in pET21b vector and then transformed into a BL21 (DE3) cell line. The vector of pET28a-full length Shc (1 – 473), generously provided by Dr. Ladbury (University of Texas MD Anderson Cancer Center, TX), was expressed in a BL21 (DE3) cell line as well. Typically, 10 ml overnight culture was used to inoculate 1 liter LB broth. Cells were grown at 37°C until OD600 reached 0.6. At this point the culture was cooled to room temperature and then the overnight overexpression was induced by 1 mM isopropyl-β-D-thiogalactopyranoside. Harvested cells were kept at −20°C for future purification or resuspended in lysis buffer supplemented with protease inhibitors. Cells were further lysed by french press and the cell debris was removed by centrifugation at 18,000 rpm at 4°C. […] The overexpression of the target protein and the purified protein were confirmed by SDS-PAGE and the bands of the expected mass were observed. The determination of protein concentration by UV measurement was consistent with Bradford assay.
Calorimetric measurements of a full length Shc, PTB domain, and SH2 domain to β3 phosphopeptides or PtdIns were performed on a low volume Nano ITC (TA Instruments). All experiments were carried out in a buffer of 50 mM Tris, pH 7.5, 100 mM NaCl, 5 mM β-mercaptoethanol (unless described otherwise) at 12°C or 25°C with a stirring speed of 250 rpm to minimize the precipitation of the protein. 300 second time intervals were set between injections. The concentration of protein samples was determined by UV measurements. The titrants (β3 phosphopeptides or PtdIns) were prepared in the same buffer by the dilution of higher concentration stocks. The concentrations of the protein ranged from 30 μM to 150 μM. The concentration of protein was examined after each ITC experiment by UV to ensure the stability of proteins under the test condition. The analysis of the data was done with Nano Analyze Software (TA Instruments) suite using an “independent” model.

## O=P(O)(O)O[C@@H]1[C@H](O)[C@H](O)[C@@H](OP(=O)(O)O)[C@H](OP(=O)(O)O)[C@H]1O [Ins(1,4,5)P3, D-myo-Inositol-1,4,5-triphosphate]
[1]
  binding by ITC: No binding was found; also recorded: does not show to bind
[2]
  binding by ITC: No binding was found; also recorded: does not
Apo Shc PTB domain
  15N-HSQC chemical shift perturbations: minimal chemical shift perturbations for a handful of residues; also recorded: less pronounced compared to PtdIns(4,5)P2
Full length Shc; 50 mM Tris, pH 8.0, 200 mM NaCl, 1 mM Dithiothreitol
  Kd: 700 nM
Full length Shc
  relative binding strength: much tighter than the binding of the isolated Shc PTB domain alone to PtdIns(4,5)P2
[3]
  binding by ITC: No binding was found; also recorded: minimal Shc PTB binding; also recorded: does not show to bind
